Values joined by “and” are separate entries in the source; they are usually repeats but may differ in a detail not shown here. Equal entries are not always repeated. “Also recorded” adds a separate entry of the source. A value given as a limit tells only on which side of the number the result lay.

The text below walks through data of article PMC12250713, “Identification and Characterization of Novel Inhibitors of Human Poly(ADP-Ribose) Polymerase-1” (Molecules, 2025).

For one data set, the target named is T1, hPARP-1 (Homo sapiens, UniProt P09874).
T1 construct: purchased Bio-Techne (Minneapolis, MN, USA)
Description: hPARP-1 enzyme assay (NAD+ cycling reaction, resorufin fluorescence read-out). Format: biochemical. To be noted: for IC50: 0.1-50 µM, mean ± SD, two biological replicates; for inhibition at 10 µM: concentration of 10 µM; for decline in PARPi activity compared with compound 54: replacement of the fluoride group; for PARPi activity at the enzyme level compared to the OLP core structure phthalazin-1(2H)-one: own IC50 vs literature IC50 12 µM; for reduction in the PARPi activity compared with compound 57: modification at the thiomethyl group. How it is done:
The putative PARP inhibitors, which were pre-selected in the in silico study, were subsequently evaluated by using an optimized biochemical hPARP-1 enzyme assay. The experiment was performed in black half-area 96-well plates. For the PARP reaction, 12.5 µL of PARP reaction solution were added. The solution was composed of 0.5 µg deoxyribonucleic acid (DNA) sodium salt from calf thymus, 2 U of recombinant hPARP-1, and 1 µL of the compound of interest in PARP reaction buffer (50 mM TRIS and 2 mM MgCl2 in ddH2O, pH = 8). These test compounds’ working solutions were prepared from 20 mM DMSO stock solutions and diluted using PARP reaction buffer to reach 25× of the required final concentration to be tested. […] Afterwards, 12.5 µL of NAD^+ solution were added to all wells to reach a final NAD^+ concentration of 50 nM, and to start the enzyme reaction.
Besides PARP reaction wells, NAD^+ calibration wells were included to measure the linearity of the detection of NAD^+ concentrations. In each well, 12.5 µL of NAD^+ calibration solution were added. The solution was composed of 0.5 µg deoxyribonucleic acid (DNA) sodium salt from calf thymus in PARP reaction buffer. Finally, 12.5 µL of decreasing concentrations of NAD^+ solution were added to the calibration wells (final concentrations: 50, 40, 30, 20, 10, 0 nM).
Subsequently, the assay plate including both the PARP reaction and NAD^+ calibration wells was gently shaken and incubated at 25 °C in the dark for 90 min. After incubation, 25 µL of detection solution were added to each well. […] The assay plate was again gently shaken and incubated at 25 °C in the dark for 40 min.
Following the aforementioned protocol, the compounds that were predicted by the in silico study as putative hPARP-1 inhibitors were tested at two different concentrations (1 and 10 µM). […] The IC50s were calculated by using GraphPad Prism software and a non-linear four-parametric regression function.

The next data set has as its target T2, hPARP-1 in BT-474 cells (Homo sapiens, UniProt P09874).
T2 construct: endogenous in cells; host or cells: BT-474
Description: fluorescence microscopy, competitive displacement of PARPi-FL. Format: cell-based. To be noted: BT-474, 72 h with 100 µM compound 57 or 1.56 µM OLP, then 250 nM PARPi-FL 20 min. How it is done:
For the determination of the interaction of the proposed PARPi and the PARP binding pocket inside the treated cells, a fluorescence microscopic inspection was performed. Using a green fluorescently labeled molecule named PARPi-FL that is characterized by the ability to occupy specifically the binding pocket of the PARP enzyme. Moreover, in case of its competitive replacement by PARPi molecules a reduction in its fluorescent signal is detectable. Thus, cells were seeded in 6-well plates and incubated in a humidified atmosphere with 5% CO2 for 24 h at 37 °C. […] Subsequently, the treatment solutions were discarded, and the cells were washed with PBS. […] Finally, cells were imaged by using the GFP channel of an EVOS™ FL Auto Imaging System (Thermo Fisher Scientific, Waltham, MA, USA).

For another data set, the system named is MDA-MB-468 cells. Description: cells. It counts as cell-based. To be noted: for cytotoxic activity as a monotherapy against MDA-MB-468: CV assay. How it is done: (§1) Cells were seeded in 96-well cell culture plates and were allowed to adhere for 24 h in a humidified atmosphere with 5% CO2 at 37 °C. Afterward, cells were treated with the test items at several concentrations for 72 h. […] After finalization of the intended 72 h treatment, the treatment solutions were discarded, and the cells were washed once with PBS. Subsequently, the cells were fixed by incubation in 4% (v/v) paraformaldehyde in PBS for 15 min at room temperature (RT). The fixing solution was discarded, and the cells were allowed to dry at RT for 15 min. The cells were stained with 0.1% (w/v) crystal violet in PBS for 15 min at RT, then washed with ddH2O and dried overnight at RT. […] The obtained absorbance data were normalized based on the negative and positive controls representing 100% and 0% cell viability, respectively. IC50 values were calculated by using a four-parametric non-linear regression analysis in GraphPad Prism software.
(§2) Finally, cell viability was determined by using the CV assay, and IC50 values were calculated as mentioned above.

Another data set has as its system BT-474 cells. The data set is described as follows: crystal violet (CV) cell viability assay, single and combined with TMZ. It counts as cell-based. How it is done: as §1, §2
A further data set has as its system MCF-7 cells. The data set is described as above. Format: cell-based. To be noted: Homo sapiens, MCF7, 72 h; read-out: IC50 of TMZ, alone or combined. How it is done: as §1, §2
Another data set relates to 184B5 cells. The description is as above. It counts as cell-based. The note with it: Homo sapiens, 184B5, 72 h; read-out: IC50 of TMZ, alone or combined. How it is done:
as §1, §2

In another data set the test system is HCC1937 cells. The data set is described as above. It counts as cell-based. The note with it: Homo sapiens, HCC1937, 72 h; read-out: IC50 of TMZ, alone or combined. On the procedure: as §1, §2

T1 sequence (P09874 whole entry): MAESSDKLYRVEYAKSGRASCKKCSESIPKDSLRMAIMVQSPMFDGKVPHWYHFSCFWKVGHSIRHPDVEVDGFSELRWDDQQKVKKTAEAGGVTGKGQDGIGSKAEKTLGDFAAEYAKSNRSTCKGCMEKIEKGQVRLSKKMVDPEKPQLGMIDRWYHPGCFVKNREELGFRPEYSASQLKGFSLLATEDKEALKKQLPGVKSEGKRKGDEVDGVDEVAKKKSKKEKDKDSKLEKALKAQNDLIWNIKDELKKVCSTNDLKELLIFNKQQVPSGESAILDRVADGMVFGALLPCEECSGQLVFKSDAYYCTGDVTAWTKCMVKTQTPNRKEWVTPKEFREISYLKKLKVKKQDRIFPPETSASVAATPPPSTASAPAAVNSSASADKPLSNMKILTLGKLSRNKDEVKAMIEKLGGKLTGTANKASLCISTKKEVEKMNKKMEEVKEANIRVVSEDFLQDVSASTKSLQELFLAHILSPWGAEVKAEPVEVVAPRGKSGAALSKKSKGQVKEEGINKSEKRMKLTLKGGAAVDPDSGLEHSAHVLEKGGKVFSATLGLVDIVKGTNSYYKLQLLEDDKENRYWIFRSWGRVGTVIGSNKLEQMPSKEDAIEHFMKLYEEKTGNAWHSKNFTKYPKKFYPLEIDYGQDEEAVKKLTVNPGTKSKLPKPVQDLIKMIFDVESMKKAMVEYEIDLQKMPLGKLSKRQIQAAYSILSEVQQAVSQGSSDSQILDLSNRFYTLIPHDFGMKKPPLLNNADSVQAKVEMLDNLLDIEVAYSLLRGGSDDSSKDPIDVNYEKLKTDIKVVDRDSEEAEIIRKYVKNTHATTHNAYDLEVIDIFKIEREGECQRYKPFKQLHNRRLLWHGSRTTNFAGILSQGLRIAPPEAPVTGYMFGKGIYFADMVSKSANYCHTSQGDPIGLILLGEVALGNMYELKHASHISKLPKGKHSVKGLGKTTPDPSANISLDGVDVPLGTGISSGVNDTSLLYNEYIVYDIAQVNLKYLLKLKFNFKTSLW
T2 sequence (P09874 whole entry): as above

On to `COc1cccc(Nc2nc3ccccc3c(=O)[nH]2)c1` [Compound 18], for which, at hPARP-1, the IC50 is 23.5 ± 8.74 µM and the inhibition at 10 µM was more than 50%.

Regarding `COc1ccc(C(=O)Nc2nc3c(c(=O)[nH]2)CCCC3)cc1` [Compound 21], on hPARP-1, the IC50 was 14.9 ± 4.92 µM, the inhibition at 10 µM was more than 50% and the “decline in PARPi activity compared with compound 54” value (from here on “decline … compared with compound 54”) is recorded as “at least three-fold”.

In the case of `O=c1[nH]nc(CNc2ccc([N+](=O)[O-])cc2)c2ccccc12` [Compound 22], on hPARP-1, the 50% inhibitory concentration (IC50) worked out at 4.57 ± 4.89 µM and the inhibition at 10 µM is more than 50%.

Turning to `O=C(Nc1nc2c(c(=O)[nH]1)CCCC2)c1ccc(Cl)cc1` [Compound 32], on hPARP-1, the “decline … compared with compound 54” value was “at least three-fold”.

With `Cc1ccc(C(=O)Nc2nc3c(c(=O)[nH]2)CCCC3)cc1` [Compound 34], the “decline … compared with compound 54” value on hPARP-1 is listed as “at least three-fold”.

As for `COc1ccc(NCc2nnc(O)c3ccccc23)cc1` [Compound 45], on hPARP-1, the IC50 came out at 3.01 ± 1.19 µM and the inhibition at 10 µM was more than 50%.

Regarding `O=C(Nc1nc2c(c(=O)[nH]1)CCCC2)c1ccc(F)cc1` [Compound 54], at hPARP-1, the IC50 was found to be 4.56 µM, the inhibition at 10 µM is more than 50% and the “PARPi activity at the enzyme level compared to the OLP core structure phthalazin-1(2H)-one” value is given as “two-fold higher”.

Consider `O=c1[nH]nc(-c2ccccc2)c2ccccc12` [Compound 56], for which, at hPARP-1, the IC50 was found to be 6.61 ± 2.09 µM and the inhibition at 10 µM is more than 50%.

With `CSc1nc2ccccc2c(=O)[nH]1` [Compound 57, 2-(methylthio)quinazolin-4(3H)-one], the “displacement of PARPi-FL from nuclear hPARP-1 (fluorescence)” value on hPARP-1 in BT-474 cells was “failed to reach the nuclei of BT-474 cells; also recorded: did not impact the fluorescent appearance of the stain”. Also, in the data set on MDA-MB-468 cells (72 h), the “cytotoxic activity as a monotherapy against MDA-MB-468” value was “such an effect was not observed”. Also, the “synergistic improvement of the TMZ activity by co-treatment” value with MDA-MB-468 cells (co-treatment at IC10 (100 µM compound 57), 72 h) is “did not induce a synergistic improvement”. In addition, on hPARP-1, the concentration for half-maximal inhibition (IC50) was 2.3 µM and 2.32 µM; the inhibition at 10 µM was more than 50%; the “PARPi activity at the enzyme level compared to the OLP core structure phthalazin-1(2H)-one” value is listed as “five-fold higher”. Besides, the “fold higher hPARP-1-inhibiting activity compared to core structure quinazolin-4(3H)-one” value on hPARP-1 (own IC50 vs literature IC50 5.8 µM) turned out to be 2.5 fold. Also, the “IC10 (CV cytotoxicity assay)” value in the data set on BT-474 cells (BT-474 cells, 72 h) is 100 µM.

As to `N#CCc1n[nH]c(=O)c2ccccc12` [Compound 58], on hPARP-1, the IC50 was 4.86 ± 0.63 µM and the inhibition at 10 µM was more than 50%.

As for `CSc1nc2ccccc2c(=O)n1C` [Compound 62], at hPARP-1, the “hPARP-1 inhibitor activity compared with compound 57 (SAR, in words)” value is “complete abolishment of hPARP-1 inhibitor activity” and the IC50 is more than 10 µM.

For `CSc1nc2ccccc2c(=O)n1Cc1ccccc1` [Compound 63], on hPARP-1, the “hPARP-1 inhibitor activity compared with compound 57 (SAR, in words)” value is reported as “complete abolishment of hPARP-1 inhibitor activity” and the concentration for half-maximal inhibition (IC50) was more than 10 µM.

For the compound `COc1cc2nc(SC)[nH]c(=O)c2cc1OC` [Compound 64], on hPARP-1, the “hPARP-1 inhibitor activity compared with compound 57 (SAR, in words)” value is given as “dramatic decrease in activity” and the IC50 is more than 10 µM.

As for `CSc1nc2ccc([N+](=O)[O-])cc2c(=O)[nH]1` [Compound 65], at hPARP-1, the “hPARP-1 inhibitor activity compared with compound 57 (SAR, in words)” value is listed as “dramatic decrease in activity” and the IC50 was more than 10 µM.

Take `CSc1nc2cc([N+](=O)[O-])ccc2c(=O)[nH]1` [Compound 66]: on hPARP-1, the “hPARP-1 inhibitor activity compared with compound 57 (SAR, in words)” value is on record as “dramatic decrease in activity” and the IC50 was more than 10 µM.

`C=CCSc1nc2ccccc2c(=O)[nH]1` [Compound 67]: on hPARP-1, the IC50 is more than 10 µM and the “reduction in the PARPi activity compared with compound 57” value (“reduction in the PARPi activity” below) was “at least four-fold”.

Consider `C#CCSc1nc2ccccc2c(=O)[nH]1` [Compound 68], for which, on hPARP-1, the IC50 is more than 10 µM and the “reduction in the PARPi activity” value is “at least four-fold”.

In the case of `O=c1[nH]c(SCCC(F)=C(F)F)nc2ccccc12` [Compound 69], on hPARP-1, the concentration for half-maximal inhibition (IC50) is more than 10 µM and the “reduction in the PARPi activity” value is “at least four-fold”.

For `O=C(c1cc(Cc2n[nH]c(=O)c3ccccc23)ccc1F)N1CCN(C(=O)C2CC2)CC1` [OLP, olaparib], the “cytotoxic activity as a monotherapy against MDA-MB-468” value in the data set on MDA-MB-468 cells (72 h) is “good and selective cytotoxic activity”. In addition, the “IC10 (CV cytotoxicity assay)” value in the data set on MDA-MB-468 cells (MDA-MB-468 cells, 72 h) is recorded as 1.56 µM.

In the case of `Cn1nnc2c(C(N)=O)ncn2c1=O` [TMZ, temozolomide], the IC50 was 2060 ± 790 µM with MDA-MB-468 cells (Homo sapiens, MDA-MB-468, 72 h, read-out: IC50 of TMZ, alone or combined); 3440 ± 1720 µM in the data set on MCF-7 cells; 980 ± 820 µM with 184B5 cells; 3740 ± 1500 µM in the data set with HCC1937 cells; 2210 ± 10 µM with BT-474 cells (Homo sapiens, BT-474, 72 h, read-out: IC50 of TMZ, alone or combined).

The IC50 is the concentration that gives 50% inhibition. Broadly, the inhibition is the change of the read-out against control, counted positive when it falls.
